The record followed here is US20240067625A1, “SMALL-MOLECULE MODULATORS OF THE ORPHAN NUCLEAR RECEPTOR TLX” (priority 2020, published 2024).

One test deals with TLX LBD (Homo sapiens (Human), UniProt Q9Y466). As to the kind of experiment: ALPHA screen assay for TLX LBD and coactivator peptide recruitment. It is filed as biochemical. The conditions noted are these: Table 3; for Average ALPHA signal at 200 μM (std. dev.): mean (std. dev.). As for the experimental part: Assays were performed according to the manufacturer's protocol (PerkinElmer, USA), with the following modifications: Ligands were tested for TLX-coactivator binding in 50 mM phosphate buffer, 150 mM NaCl, pH 7, 1 mM DTT and 100 μM CHAPS. Ligands were dissolved and diluted in DMSO as stocks and were prepared in assay buffer from the original stock in the 100% DMSO and added to the assay plate. Biotinylated SRC peptide and polyhistidine tagged TLX LBD were diluted in assay buffer, subsequently added to respective ALPHA beads, under low light. The plates were spun down, mixed with a shaker and incubated for 120 minutes and read on a TECAN Plate reader using the manufacturer's protocol.
Chain of TLX LBD (Q9Y466 155-383): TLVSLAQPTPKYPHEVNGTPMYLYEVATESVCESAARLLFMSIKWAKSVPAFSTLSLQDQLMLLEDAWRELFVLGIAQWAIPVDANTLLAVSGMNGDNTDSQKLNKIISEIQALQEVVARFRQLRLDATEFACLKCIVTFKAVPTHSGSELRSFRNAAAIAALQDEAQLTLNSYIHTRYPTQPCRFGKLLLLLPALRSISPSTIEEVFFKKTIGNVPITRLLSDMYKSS

The next test has as its system human brain organoids. Description: TLX agonist activity in human brain organoids (RNA expression of NSC and immature neuron genes). The test is classed as cell-based. The conditions noted are these: 25 μM for 3 days, organoids at 68 days; compared to controls; FIG. 13. From the text: Human induced pluripotent cells (iPSCs) were used to generate brain organoids using a modified Pasca protocol as previously described. See, Manganas, et al. (Sci Rep […], 11: 5546) and Pasca, et al. (Nat. Methods 2015, 12: 671-678), which are incorporated herein by reference. Within 2 months, the protocol produces organoids with a variety of cell types that mimic early human brain (neural stem cells, progenitors, different types of neurons at different maturation stage, astrocytes, oligodendrocytes). About 300 organoids can be generated per batch and thus the model provides for testing of different experimental paradigms in the same batch. Organoids were treated at 68-days with 25 μM of reference compound 29, test compounds 95 and […]), or vehicle (0.03N HCl) for 3 days, after which they were processed to examine the expression of NSC genes (PAX6, BLBP) and immature neuron genes (PROM1, DCX).

Each structure is given as a SMILES string.

On to `CC(C)CCNc1ncccc1C(=O)N1CCN(Cc2ccccc2)C[C@@H]1Cc1ccccc1` [Compound 96], for which, at TLX LBD, the EC50 (in general, the concentration giving half of the maximal effect) worked out at 0.00315 nM and the “Average ALPHA signal at 200 μM (std. dev.)” value (shortened to “Average ALPHA signal”) is given as 2.41 (0.07). Further, in the test with human brain organoids, the “expression of NSC genes (PAX6, BLBP) and immature neuron genes (PROM1, DCX)” value (from here on “expression of NSC genes”) is on record as “substantially increased the expression levels of tested genes”.

Take `CC(C)CCNc1ncccc1C(=O)N1CCN(Cc2ccccc2)C[C@H]1Cc1ccccc1` [Compound 95]: the “Average ALPHA signal” value at TLX LBD is on record as 2.37 (0.19). Further, in the test with human brain organoids, the “expression of NSC genes” value is on record as “substantially increased the expression levels of tested genes”.

As to `CC(C)CCNc1ncccc1C(=O)N1CCN(Cc2ccccc2)CC1` [Compound 29, (4-benzylpiperazin-1-yl)(2-(isopentylamino)pyridin-3-yl)methanone, reference compound], on TLX LBD, the EC50 came out at 0.0361 nM and the “Average ALPHA signal” value is reported as 2.52 (0.09). Besides, in the test with human brain organoids, the “expression of NSC genes” value is “did not lead to a substantial difference in gene expression”.
